Results from ChEMBL document CHEMBL1201862, “PubChem BioAssay data set” (2004).
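A five-concentration, 48-hour dose response in 96-well plates underlies each endpoint, interpolated linearly between surrounding concentrations. At the GI50, growth is halved.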 Activity calls are given as the source filed them. No stated cut-off is given here; in the data, active = GI50 up to about 1.1 µM and inactive = higher.

Tests used:
Test in all cases: inhibition of tumour cell growth, NCI panel, 48 h
[1] = test system: SN12C
[2] = test system: MOLT-4
[3] = test system: CAKI-1
[4] = test system: IGROV-1
[5] = test system: MDA-MB-231
[6] = test system: SNB-19
[7] = test system: HOP-92
[8] = test system: NCI-H460
[9] = test system: RPMI-8226
[10] = test system: T47D
[11] = test system: SNB-75
[12] = test system: SR
[13] = test system: 786-0
[14] = test system: DU-145
[15] = test system: SF-295
[16] = test system: SK-OV-3

Measured: GI50

CC(CC(C)[C@H]1CCC2[C@H]3C(CC[C@@]21C)[C@@]1(C)CCC(O)C[C@H]1C[C@@H]3O)C(=O)O (stereo partly specified)
inactive: [1] > 100 µM | [2] > 100 µM | [3] > 100 µM | [4] > 100 µM | [5] > 100 µM | [6] > 100 µM | [7] > 100 µM | [8] > 100 µM | [9] > 100 µM | [10] > 100 µM | [11] > 100 µM | [12] > 100 µM | [13] > 100 µM | [14] > 100 µM

CCOC(=O)c1sc2nc(SC)nc3c2c1NCN3C
inactive: [15] 27.9 µM | [1] 30.6 µM | [3] 22.5 µM | [4] 13 µM | [5] 28.1 µM | [6] 20.5 µM | [7] 11.5 µM | [8] 32.1 µM | [16] 16.1 µM | [9] > 100 µM | [10] 6.79 µM | [11] 5.78 µM | [13] 15.2 µM | [14] 70.1 µM

COc1ccc2c(c1)CC[C@@H]1[C@@H]2CC[C@]2(C)C(=O)/C(=C/c3ccc(O)c(OC)c3)C[C@@H]12
inactive: [15] 55.6 µM | [2] 28.2 µM | [3] 67.8 µM | [4] 63.8 µM | [5] 37.2 µM | [6] > 100 µM | [7] > 100 µM | [8] 39.4 µM | [16] > 100 µM | [9] 34.7 µM | [10] 96.6 µM | [12] 32.2 µM | [14] 92.9 µM

CCCCCCCCC/C=C1\CC(CO)(COC(=O)c2ccccc2)OC1=O (stereo unspecified)
inactive: [15] 21.2 µM | [1] 19.2 µM | [2] 38.2 µM | [3] 19.4 µM | [4] 32.1 µM | [5] 19.3 µM | [6] 20.9 µM | [7] 9.82 µM | [8] 16 µM | [16] 18.3 µM | [10] 29.1 µM | [11] 15.9 µM | [12] 42.4 µM | [13] 17.8 µM | [14] 29.1 µM

COC(=O)C1CC2CC1C1C2SC(F)(F)C1(F)F (stereo unspecified)
inactive: [15] > 100 µM | [1] > 100 µM | [2] > 100 µM | [3] > 100 µM | [4] > 100 µM | [5] > 100 µM | [6] > 100 µM | [8] > 100 µM | [16] > 100 µM | [9] > 100 µM | [10] > 100 µM | [11] > 100 µM | [12] > 100 µM | [13] > 100 µM | [14] > 100 µM

CN(C)/N=C1\CC(c2ccccc2)C(C#N)(C#N)C1(C#N)C#N (stereo unspecified)
inactive: [15] 23.7 µM | [1] 20.8 µM | [2] 4.53 µM | [3] 8.63 µM | [4] 21.4 µM | [5] 21.7 µM | [6] 24.5 µM | [7] 14.8 µM | [16] 50.1 µM | [9] 11.8 µM | [10] 21 µM | [11] 15.7 µM | [12] 18.5 µM | [13] 17.7 µM | [14] 21 µM

O=S(=O)(O)c1ccc2c(/N=N/c3ccc(Sc4ccc(/N=N/c5c(O)ccc6cc(S(=O)(=O)O)ccc56)cc4)cc3)c(O)ccc2c1
inactive: [15] > 100 µM | [1] > 100 µM | [2] > 100 µM | [3] > 100 µM | [4] > 100 µM | [5] > 100 µM | [6] > 100 µM | [7] > 100 µM | [8] > 100 µM | [16] > 100 µM | [9] > 100 µM | [10] > 100 µM | [12] > 100 µM | [13] > 100 µM | [14] > 100 µM

COC1OC(C(C)O)C2OC(C)(C)OC12 (stereo unspecified)
inactive: [15] > 100 µM | [1] > 100 µM | [2] > 100 µM | [3] > 100 µM | [4] > 100 µM | [5] > 100 µM | [6] > 100 µM | [8] > 100 µM | [16] > 100 µM | [9] > 100 µM | [10] > 100 µM | [11] > 100 µM | [12] > 100 µM | [13] > 100 µM | [14] > 100 µM

CCOC(=O)C(Cl)(NC(=O)OCc1ccccc1)C(F)(F)F (stereo unspecified)
inactive: [15] > 100 µM | [1] > 100 µM | [2] > 100 µM | [3] > 100 µM | [4] > 100 µM | [5] > 100 µM | [6] > 100 µM | [7] > 100 µM | [16] > 100 µM | [9] > 100 µM | [10] > 100 µM | [11] > 100 µM | [13] > 100 µM | [14] > 100 µM

Cc1ccnc(NC(=S)Nc2ccccc2Cl)c1
inactive: [15] 87.7 µM | [1] > 100 µM | [2] > 100 µM | [3] > 100 µM | [4] 61.2 µM | [5] 2.23 µM | [6] > 100 µM | [8] > 100 µM | [16] 83.8 µM | [9] > 100 µM | [10] > 100 µM | [11] 13 µM | [12] > 100 µM | [13] > 100 µM | [14] > 100 µM

O=C1C[C@@]23CCC4(CC2CCC[C@H]3O1)OCCO4 (stereo partly specified)
inactive: [15] > 100 µM | [1] > 100 µM | [2] > 100 µM | [4] > 100 µM | [5] > 100 µM | [6] > 100 µM | [7] > 100 µM | [8] > 100 µM | [16] > 100 µM | [9] > 100 µM | [10] > 100 µM | [12] > 100 µM | [13] > 100 µM | [14] > 100 µM

CCc1nc(N)c2nc(-c3ccc(C#N)cc3)oc2n1
inactive: [15] > 100 µM | [1] > 100 µM | [2] > 100 µM | [3] > 100 µM | [4] > 100 µM | [5] > 100 µM | [6] > 100 µM | [7] > 100 µM | [8] > 100 µM | [9] > 100 µM | [10] > 100 µM | [11] > 100 µM | [12] > 100 µM | [13] > 100 µM | [14] > 100 µM

CC[C@@H]1CC[C@@H]2[C@H](CC[C@]3(C)[C@@H](OC(C)=O)CC[C@@H]23)[C@H]1COC(C)=O
inactive: [15] 25.2 µM | [1] 22.9 µM | [2] 16 µM | [3] 29 µM | [4] 32.7 µM | [5] 20 µM | [6] 36.9 µM | [7] 29 µM | [8] 19.9 µM | [16] 35.2 µM | [9] 25.6 µM | [10] 32.1 µM | [11] 40.6 µM | [13] 45.1 µM | [14] > 100 µM

COc1ccc(-c2c(C(C)=O)c(C)n(C3OC(CO)C(O)C(O)C3O)c(=S)c2C#N)cc1 (stereo unspecified)
inactive: [15] 72.9 µM | [1] 50.6 µM | [2] 27.7 µM | [3] > 100 µM | [4] > 100 µM | [5] > 100 µM | [6] 19.5 µM | [8] > 100 µM | [16] > 100 µM | [9] 83.6 µM | [10] 34.6 µM | [11] 80.9 µM | [12] 48.8 µM | [14] > 100 µM

CN1CCCOC(c2ccc([N+](=O)[O-])cc2)O1 (stereo unspecified)
inactive: [15] > 100 µM | [1] > 100 µM | [2] > 100 µM | [3] > 100 µM | [4] > 100 µM | [5] > 100 µM | [6] > 100 µM | [7] > 100 µM | [8] > 100 µM | [16] > 100 µM | [10] > 100 µM | [11] > 100 µM | [12] > 100 µM | [13] > 100 µM | [14] > 100 µM

O=C(O)CC(O)(C(=O)O)C(O)C(=O)O (stereo unspecified)
inactive: [15] > 1000 µM | [1] > 1000 µM | [2] > 1000 µM | [3] > 1000 µM | [4] > 1000 µM | [5] > 1000 µM | [6] > 1000 µM | [8] > 1000 µM | [16] > 1000 µM | [9] 787 µM | [10] > 1000 µM | [11] > 1000 µM | [13] > 1000 µM | [14] > 1000 µM

O=C(Nc1ccccc1)N1CC(CN2CCN(c3ccccc3)CC2)OC1=O (stereo unspecified)
inactive: [15] > 100 µM | [1] > 100 µM | [2] > 100 µM | [3] > 100 µM | [4] 46.3 µM | [5] > 100 µM | [6] > 100 µM | [7] > 100 µM | [8] > 100 µM | [16] > 100 µM | [9] > 100 µM | [10] > 100 µM | [12] > 100 µM | [13] > 100 µM | [14] > 100 µM

O=C(O)CNCCc1ccccc1
inactive: [15] > 100 µM | [1] > 100 µM | [3] > 100 µM | [4] > 100 µM | [5] > 100 µM | [6] > 100 µM | [7] > 100 µM | [8] > 100 µM | [16] > 100 µM | [9] > 100 µM | [10] > 100 µM | [11] > 100 µM | [12] > 100 µM | [13] > 100 µM | [14] > 100 µM

CCOP(=O)(OCC)C(C)(CC)N/C(N)=N/C#N (stereo unspecified)
inactive: [15] > 100 µM | [1] > 100 µM | [2] > 100 µM | [4] > 100 µM | [5] > 100 µM | [6] > 100 µM | [8] > 100 µM | [16] > 100 µM | [9] > 100 µM | [10] > 100 µM | [11] > 100 µM | [12] > 100 µM | [13] > 100 µM | [14] > 100 µM
